Reference: paper PMC10202811 (Nature Medicine, 2023)
Several values for one entry are separate records, joined by “and”; a condition that tells them apart may be missing. Equal values may be shown once. Marks after values point to notes of the source that are not given here.

Experiment: Toxicity assessment (CTCAE version 4): treatment-related AEs, DLTs, dose reductions, RP2D; phase 1 NANT2015-02
Protocol: Five DLs (45, 60, 75, 95 and 115 mg/m^2/dose) were assessed in A1, using a 3 + 3 design. […] Myeloid growth factor was given 24 hours after the completion of topotecan/cyclophosphamide on B2, according to institutional standards. Instructions and hands-on training for a tablet dispersion formulation, validated by Pfizer, was provided to families of patients who could not swallow tablets.
Initially, this was the only DL planned, but, with a subsequent amendment, a second DL was added to cohort A2 (150 mg). […] Finally, because of the nature of the patients in cohort A2 (which had only two planned DLs), an expansion of up to six additional patients was planned for the highest DL tested with zero or one DLT in six DLT-evaluable patients. Accrual could continue in the expansion cohort as long as none, or at most one, of the patients experienced DLT in the DLT observation period; if two or more patients experienced DLT in the DLT observation period, this would lead to a discussion of the suitability of this dose. The probability of observing […] with DLT, out of six patients, is 0.11, 0.22, 0.47, 0.68 and 0.77 when the true probability of DLT is 0.10, 0.15, 0.25, 0.35 and 0.40, respectfully.
Patients who were not evaluable for DLT were replaced for dose-escalation purposes. […] The MTD was defined as the highest DL tested at which zero of six or one of six patients experience DLT. After determination of the MTD and review of all toxicities, and provided that other safety considerations were acceptable, the MTD was labeled the RP2D.
Toxicity was graded according to CTCAE version 4. DLT definitions included only toxicities deemed at least possibly related to therapy. For A1 and A2, hematologic DLT was defined as grade 4 thrombocytopenia or grade 4 neutropenia >7-day duration or a delay in the start of subsequent course by more than 14 days due to ongoing thrombocytopenia or neutropenia, in the absence of bone marrow disease progression seen on clinically indicated bone marrow biopsy (if performed). For cohort B2, hematological DLT is defined as a delay in the start of subsequent course by more than 14 days due to ongoing thrombocytopenia or neutropenia, in the absence of bone marrow disease progression seen on clinically indicated bone marrow biopsy after the first dose reduction of cyclophosphamide and topotecan. Non-hematologic DLT was defined as any non-hematologic toxicity that delayed the start of a subsequent cycle by more than 14 days or any grade ≥3 toxicity, with the exception of the following grade 3 toxicities: nausea, vomiting, anorexia or dehydration resolving to grade ≤2 within 72 hours; increase in hepatic transaminase or electrolyte abnormality resolving eligibility levels within 7 days; diarrhea persisting for less than 72 hours; fever; infection; febrile neutropenia; high cholesterol or triglycerides if responsive (to ≤grade 2) with statin treatment; weight gain; and hyperglycemia if responsive (to <grade 2) with dietary modification.

[1] = Cohort A1, one line per patient (PID)
[2] = Cohort A2, neurotoxicity, one line per patient (PID)
[3] = Cohort A2, one line per patient (PID)
[4] = patients <18 years, single agent
[5] = single-agent lorlatinib across all ages, grade 1–4 treatment-related

C[C@H]1Oc2cc(cnc2N)-c2c(nn(C)c2C#N)CN(C)C(=O)c2ccc(F)cc21 [Lorlatinib, (10R)-7-amino-12-fluoro-2,10,16-trimethyl-15-oxo-10,15,16,17-tetrahydro-2H-8,4-(metheno)pyrazolo[4,3-h][2,5,11]-benzoxadiazacyclotetradecine-3-carbonitrile]
Nausea: Toxicity Maximum Grade per patient [1]: 1
Neutrophil count decreased: Toxicity Maximum Grade per patient [1]: 2
Peripheral sensory neuropathy: Toxicity Maximum Grade per patient [1]: 2 and 1
Platelet count decreased: Toxicity Maximum Grade per patient [1]: 1
Tinnitus: Toxicity Maximum Grade per patient [1]: 1
Vomiting: Toxicity Maximum Grade per patient [1]: 1
Weight gain: Toxicity Maximum Grade per patient [1]: 2 and 3 and 1
White blood cell decreased: Toxicity Maximum Grade per patient [1]: 1 and 3
Patients with DLT in course 1 (Cohort A2, 100 mg): 0
Patients with DLT in course 2 (Cohort A2, 100 mg): 0
Patients with DLT in other courses (Cohort A2, 100 mg): 2^c
Patients with DLT in course 1 (Cohort A2, 150 mg): 1^d
Patients with DLT in course 2 (Cohort A2, 150 mg): 2^e,f
Patients with DLT in other courses (Cohort A2, 150 mg): 3^e,f,g
Toxicity Maximum Grade per patient: Sinus tachycardia (Cohort A2, patient PID 8, CTCAE grade): 1
Neutrophil count decreased (Cohort A2, grade 1-2, 3, 4 in c8-c10): 0 (0) n (%)
Hypersomnia (CNS effect) (Cohort A2, grade 1-4 in c5-c8): 0 (0)
Agitation: Toxicity Maximum Grade per patient [2]: 4 and 3 and 1
Anxiety: Toxicity Maximum Grade per patient [2]: 4 and 3 and 2 and 1
Cognitive disturbance: Toxicity Maximum Grade per patient [2]: 1 and 2
Concentration impairment: Toxicity Maximum Grade per patient [2]: 1 and 2 and 3
Depression: Toxicity Maximum Grade per patient [2]: 1 and 3
Hallucinations: Toxicity Maximum Grade per patient [2]: 1 and 4
Headache: Toxicity Maximum Grade per patient [2]: 1
Memory impairment: Toxicity Maximum Grade per patient [2]: 1 and 2 and 3
Alanine aminotransferase increased: Toxicity Maximum Grade per patient [3]: 1 and 2
Alkaline phosphatase increased: Toxicity Maximum Grade per patient [3]: 1
Anemia: Toxicity Maximum Grade per patient [3]: 3 and 1 and 2
Aspartate aminotransferase increased: Toxicity Maximum Grade per patient [3]: 1 and 2
Cholesterol high: Toxicity Maximum Grade per patient [3]: 2 and 3 and 1
Creatinine increased: Toxicity Maximum Grade per patient [3]: 1 and 2
Diarrhea: Toxicity Maximum Grade per patient [3]: 2 and 1
Edema limbs: Toxicity Maximum Grade per patient [3]: 1 and 2
Electrocardiogram QT corrected interval prolonged: Toxicity Maximum Grade per patient [3]: 1
Fatigue: Toxicity Maximum Grade per patient [3]: 1
Flatulence: Toxicity Maximum Grade per patient [3]: 1
Gastroesophageal reflux disease: Toxicity Maximum Grade per patient [3]: 2 and 1
Hyperglycemia: Toxicity Maximum Grade per patient [3]: 1 and 3
Hypertriglyceridemia: Toxicity Maximum Grade per patient [3]: 3 and 2 and 1
INCREASED APPETITE: Toxicity Maximum Grade per patient [3]: 1 and 2
Irritability: Toxicity Maximum Grade per patient [3]: 4
Lymphocyte count decreased: Toxicity Maximum Grade per patient [3]: 4 and 1
Nausea: Toxicity Maximum Grade per patient [3]: 1 and 2
Peripheral sensory neuropathy: Toxicity Maximum Grade per patient [3]: 3 and 2 and 1
Platelet count decreased: Toxicity Maximum Grade per patient [3]: 1 and 2
Tinnitus: Toxicity Maximum Grade per patient [3]: 1
Vomiting: Toxicity Maximum Grade per patient [3]: 1
Weight gain: Toxicity Maximum Grade per patient [3]: 2 and 1 and 3
White blood cell decreased: Toxicity Maximum Grade per patient [3]: 1 and 2
Patients with DLT in course 1 (Cohort B2, DL4 (95 mg/m^2)): 0
Patients with DLT in course 2 (Cohort B2, DL4 (95 mg/m^2)): 0
Patients with DLT in other courses (Cohort B2, DL4 (95 mg/m^2)): 0
Patients with DLT in course 1 (Cohort B2, DL5 (115 mg/m^2)): 0
Patients with DLT in course 2 (Cohort B2, DL5 (115 mg/m^2)): 0
Patients with DLT in other courses (Cohort B2, DL5 (115 mg/m^2)): 1^h
Amnesia (CNS effect) (Cohort B2, grade 1-4 in c9-c12): 0 (0)
Delirium (CNS effect) (Cohort B2, grade 1-4 in c9-c12): 0 (0)
Delusions (CNS effect) (Cohort B2, grade 1-4 in c9-c12): 0 (0)
Depressed level of consciousness (CNS effect) (Cohort B2, grade 1-4 in c9-c12): 0 (0)
Dizziness (CNS effect) (Cohort B2, grade 1-4 in c9-c12): 0 (0)
Dysarthria (CNS effect) (Cohort B2, grade 1-4 in c9-c12): 0 (0)
Euphoria (CNS effect) (Cohort B2, grade 1-4 in c9-c12): 0 (0)
Mania (CNS effect) (Cohort B2, grade 1-4 in c9-c12): 0 (0)
Paresthesia (CNS effect) (Cohort B2, grade 1-4 in c9-c12): 0 (0)
Psychosis (CNS effect) (Cohort B2, grade 1-4 in c9-c12): 0 (0)
Restlessness (CNS effect) (Cohort B2, grade 1-4 in c9-c12): 0 (0)
Stuttering (CNS effect) (Cohort B2, grade 1-4 in c9-c12): 0 (0)
Suicidal ideation (CNS effect) (Cohort B2, grade 1-4 in c9-c12): 0 (0)
incidence of peripheral neuropathy (adults, single agent): 27%
RP2D (in combination with topotecan/cyclophosphamide, patients <18 years, daily (DL5)): 115 mg/m^2
hypertriglyceridemia, patients with AE (lorlatinib combined with topotecan/cyclophosphamide, <18 years): 89%
Grade 1–2 peripheral limb edema [4]: 4%
incidence of peripheral neuropathy [4]: 13%
Grade 1–2 peripheral limb edema (patients ≥18 years, single agent): 47%
RP2D <18 years relative to the adult RP2D (single agent, 115 mg/m^2/dose daily): approximately 200%
RP2D (single agent, patients <18 years, daily (DL5)): 115 mg/m^2
RP2D (single agent, patients ≥18 years, daily): 150 mg
hypercholesterolemia / elevated cholesterol, patients with AE [5]: 79%
hypertriglyceridemia, patients with AE [5]: 90%
weight gain, patients with AE [5]: 87%
patients developing grade 2–4 CNS effects (≥18 years (cohort A2), four of 15): 27%
patients requiring dose reduction due to toxicities (≥18 years, 150 mg (n = 10)): 50%
